Where two headings read alike, the source gives them in different places.
Legend:
[1] = molecular target: BRD4-BD12 (1-477) (Homo sapiens (Human), UniProt O60885); experiment: Alphascreen binding assay BRD4-BD12; conditions: BRD4(1 2) H4; read-out: Biochemical activity (IC50 μM) BRD4(1 2) H4
In short: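 In this competition format, compounds displace a biotinylated tetra-acetyl H4 peptide from E. coli-expressed human BRD4 bromodomain constructs captured on nickel chelate beads. The reaction runs at pH 7.5 with 2 mM DTT and detergent for 1 h at room temperature before a 30 min bead step.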

[2] = tested on: bromodomain; experiment: at least one of the bromodomain cell assays of Example 57; assay type: cell-based; conditions: at least one of the bromodomain cell assays described in Example 57; read-out: IC50 in at least one of the bromodomain cell assays
[3] = tested on: MV-4-11 cells; experiment: Oncology cell growth assay MV-4-11 (CellTiter Glo); assay type: cell-based; conditions: Homo sapiens, MV4-11, 72 h, read-out: Cell activity (IC50 μM) MV-4-11 3d-Growth
In short: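 Growth read by CellTiter Glo luminescence after 72 h compound treatment of MLL-AF4-bearing MV-4-11 cells (3000/well). Titration: 8 points, 1:3 steps, maximum 10 μM, 0.2% DMSO final. Data normalized to DMSO wells, four-parameter fit gives pIC50.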

Structure (SMILES) | IC50 [1] [µM] | IC50 [2] [µM] | IC50 ([3]; MV-4-11, 3d growth) [µM] | IC50 [3] [µM]
COC(=O)c1ccc(-c2cn(C(C)(C)c3ccccn3)c3cc(-c4c(C)noc4C)cnc23)cc1 [P-0547, methyl 4-[6-(3,5-dimethylisoxazol-4-yl)-1-[1-methyl-1-(2-pyridyl)ethyl]pyrrolo[3,2-b]pyridin-3-yl]benzoate] | < 1 | < 10 | < 1 | 
CC(C)n1cc(-c2cnc3ccn(CC4CCC(F)(F)CC4)c3c2)ccc1=O [P-0518, 5-[1-[(4,4-difluorocyclohexyl)methyl]pyrrolo[3,2-b]pyridin-6-yl]-1-isopropyl-pyridin-2-one] | 1 to 10 | < 10 | 10 to 200 | 
CC[C@H](c1ccccc1)n1cc(-c2ccc(C(=O)OC)cc2)c2ncc(-c3c(C)noc3C)cc21 [P-0569, methyl 4-[6-(3,5-dimethylisoxazol-4-yl)-1-[(1R)-1-phenylpropyl]pyrrolo[3,2-b]pyridin-3-yl]benzoate] | < 1 | < 10 | < 1 | 
CNS(=O)(=O)c1ccc(-c2cn(CC3(F)CCCCC3)c3cc(-c4c(C)noc4C)cnc23)cc1 [P-0378, 4-[6-(3,5-dimethylisoxazol-4-yl)-1-[(1-fluorocyclohexyl)methyl]pyrrolo[3,2-b]pyridin-3-yl]-N-methyl-benzenesulfonamide] | < 1 | < 10 |  | < 1
Cc1noc(C)c1-c1cnc2c(-c3ccc(=O)n(C)c3)cn(CC3CCC(F)(F)CC3)c2c1 [P-0408, 5-[1-[(4,4-difluorocyclohexyl)methyl]-6-(3,5-dimethylisoxazol-4-yl)pyrrolo[3,2-b]pyridin-3-yl]-1-methyl-pyridin-2-one] | < 1 | < 10 |  | < 1
Cc1noc(C)c1-c1cnc2c(-c3ccc(C(=O)O)cc3)cn([C@H](c3ccccc3)c3ccccn3)c2c1 [P-0722, 4-[6-(3,5-dimethylisoxazol-4-yl)-1-[(R)-phenyl(2-pyridyl)methyl]pyrrolo[3,2-b]pyridin-3-yl]benzoic acid] | < 1 | < 10 | < 1 | 
Cc1noc(C)c1-c1cnc2c(-c3cccc(NS(C)(=O)=O)c3)cn(CC3(F)CCCCC3)c2c1 [P-0492, N-[3-0[6-(3,5-dimethylisoxazol-4-yl)-1-[(1-fluorocyclohexyl)methyl]pyrrolo[3,2-b]pyridin-3-yl]phenyl]methanesulfonamide] | < 1 | < 10 | < 1 | 
Cc1cc(-c2cn(CC3CCC(F)(F)CC3)c3cc(-c4c(C)noc4C)cnc23)ccc1C(=O)O [P-0483, 4-[1-[(4,4-difluorocyclohexyl)methyl]-6-(3,5-dimethylisoxazol-4-yl)pyrrolo[3,2-b]pyridin-3-yl]-2-methyl-benzoic acid] | < 1 | < 10 | < 1 | 
Cc1cc(-c2cnc3c(-c4cnn(CC(F)(F)F)c4)cn(CC4CCC(F)(F)CC4)c3c2)c[nH]c1=O [P-0481, 5-[1-[(4,4-difluorocyclohexyl)methyl]-3-[1-(2,2,2-trifluoroethyl)pyrazol-4-yl]pyrrolo[3,2-b]pyridin-6-yl]-3-methyl-1H-pyridin-2-one] | < 1 | < 10 | < 1 | 
Cc1noc(C)c1-c1cnc2c(-c3ccc(C(=O)O)c(F)c3F)cn(CC3CCC(F)(F)CC3)c2c1 [P-0416, 4-[1-[(4,4-difluorocyclohexyl)methyl]-6-(3,5-dimethylisoxazol-4-yl)pyrrolo[3,2-b]pyridin-3-yl]-2,3-difluoro-benzoic acid] | < 1 | < 10 |  | < 1
Cc1noc(C)c1-c1cnc2c(-c3ccc(C#N)cc3)cn(CC3CCC(F)(F)CC3)c2c1 [P-0434, 4-[1-[(4,4-difluorocyclohexyl)methyl]-6-(3,5-dimethylisoxazol-4-yl)pyrrolo[3,2-b]pyridin-3-yl]benzonitrile] | < 1 | < 10 | < 1 | 
COC(=O)c1ccc(-c2cn(CC3(F)CCCCC3)c3cc(-c4c(C)noc4C)cnc23)cn1 [P-0453, methyl 5-[6-(3,5-dimethylisoxazol-4-yl)-1-[(1-fluorocyclohexyl)methyl]pyrrolo[3,2-b]pyridin-3-yl]pyridine-2-carboxylate] | < 1 | < 10 | < 1 | 
Cc1noc(C)c1-c1cnc2c(C#CC(=O)O)cn(CC3CCC(F)(F)CC3)c2c1 [P-0462, 3-[1-[(4,4-difluorocyclohexyl)methyl]-6-(3,5-dimethylisoxazol-4-yl)pyrrolo[3,2-b]pyridin-3-yl]prop-2-ynoic acid] | < 1 | < 10 | 1 to 10 | 
[2H]C([2H])(C1CCC(F)(F)CC1)n1cc(-c2cccnc2)c2ncc(-c3c(C)noc3C)cc21 [P-0340, 4-[1-[dideuterio-(4,4-difluorocyclohexyl)methyl]-3-(3-pyridyl)pyrrolo[3,2-b]pyridin-6-yl]-3,5-dimethyl-isoxazole] | < 1 | < 10 |  | < 1
Cc1noc(C)c1-c1cnc2c(-c3ccc(C(=O)OC(C)(C)C)cc3)cn(C(CC#N)C3CCCC3)c2c1 (stereo not drawn) [P-0526, tert-butyl 4-[1-(2-cyano-1-cyclopentyl-ethyl)-6-(3,5-dimethylisoxazol-4-yl)pyrrolo[3,2-b]pyridin-3-yl]benzoate] | < 1 | < 10 | < 1 | 
CCn1cc(-c2cnc3ccn(CC4CCC(F)(F)CC4)c3c2)ccc1=O [P-0517, 5-[1-[(4,4-difluorocyclohexyl)methyl]pyrrolo[3,2-b]pyridin-6-yl]-1-ethyl-pyridin-2-one] | 1 to 10 | < 10 | 1 to 10 | 
Cc1nnn(C)c1-c1cnc2c(-c3ccc(C(=O)O)cc3)cn(CC3CCC(F)(F)CC3)c2c1 [P-0377, 4-[1-[(4,4-difluorocyclohexyl)methyl]-6-(3,5-dimethyltriazol-4-yl)pyrrolo[3,2-b]pyridin-3-yl]benzoic acid] | < 1 | < 10 |  | < 1
Cc1noc(C)c1-c1cnc2c(-c3ccc(OCC(=O)O)cc3)cn(CC3(F)CCCCC3)c2c1 [P-0503, 2-[4-[6-(3,5-dimethylisoxazol-4-yl)-1-[(1-fluorocyclohexyl)methyl]pyrrolo[3,2-b]pyridin-3-yl]phenoxy]acetic acid] | < 1 | < 10 | < 1 | 
Cc1noc(C)c1-c1cnc2c(-c3cnco3)cn(CC3CCC(F)(F)CC3)c2c1 [P-0400, 4-[1-[(4,4-difluorocyclohexyl)methyl]-3-oxazol-5-yl-pyrrolo[3,2-b]pyridin-6-yl]-3,5-dimethyl-isoxazole] | < 1 | < 10 |  | < 1
Cc1noc(C)c1-c1cnc2c(-c3ccc(NS(C)(=O)=O)cc3)cn(CC3(F)CCCCC3)c2c1 [P-0495, N-[4-[6-(3,5-dimethylisoxazol-4-yl)-1-[(1-fluorocyclohexyl)methyl]pyrrolo[3,2-b]pyridin-3-yl]phenyl]methanesulfonamide] | < 1 | < 10 | < 1 | 
COC(=O)c1ccc(-c2cn(Cc3cccnn3)c3cc(-c4c(C)noc4C)cnc23)cc1 [P-0539, methyl 4-[6-(3,5-dimethylisoxazol-4-yl)-1-(pyridazin-3-ylmethyl)pyrrolo[3,2-b]pyridin-3-yl]benzoate] | < 1 | < 10 | < 1 | 
CONC(=O)c1ccc(-c2cn(CC3(F)CCCCC3)c3cc(-c4c(C)noc4C)cnc23)cc1 [P-0497, 4-[6-(3,5-dimethylisoxazol-4-yl)-1-[(1-fluorocyclohexyl)methyl]pyrrolo[3,2-b]pyridin-3-yl]-N-methoxy-benzamide] | < 1 | < 10 | < 1 | 
Cc1cc(-c2cn(CC3(F)CCCCC3)c3cc(-c4c(C)noc4C)cnc23)ccc1C(=O)O [P-0506, 4-[6-(3,5-dimethylisoxazol-4-yl)-1-[(1-fluorocyclohexyl)methyl]pyrrolo[3,2-b]pyridin-3-yl]-2-methyl-benzoic acid] | < 1 | < 10 | < 1 | 
Cc1noc(C)c1-c1cnc2c(-c3ccc(C(=O)O)cc3)cn([C@@H](c3ccccc3)c3ccccn3)c2c1 [P-0711, 4-[6-(3,5-dimethylisoxazol-4-yl)-1-[(S)-phenyl(2-pyridyl)methyl]pyrrolo[3,2-b]pyridin-3-yl]benzoic acid] | < 1 | < 10 | < 1 | 
Cc1noc(C)c1-c1cnc2c(I)cn(CC3(F)CCC(F)(F)CC3)c2c1 [P-0448, 4-[3-iodo-1-[(1,4,4-trifluorocyclohexyl)methyl]pyrrolo[3,2-b]pyridin-6-yl]-3,5-dimethyl-isoxazole] | < 1 | < 10 | < 1 | 
Cc1noc(C)c1-c1cnc2c(-c3cnn(C(F)F)c3)cn([C@@H](C)c3ccccn3)c2c1 [P-0514, 4-[3-[1-(difluoromethyl)pyrazol-4-yl]-1-[(1S)-1-(2-pyridyl)ethyl]pyrrolo[3,2-b]pyridin-6-yl]-3,5-dimethyl-isoxazole] | < 1 | < 10 | < 1 | 
Cc1ccc(-c2cn(CC3(F)CCCCC3)c3cc(-c4c(C)noc4C)cnc23)cc1C(=O)O [P-0525, 5-[6-(3,5-dimethylisoxazol-4-yl)-1-[(1-fluorocyclohexyl)methyl]pyrrolo[3,2-b]pyridin-3-yl]-2-methyl-benzoic acid] | < 1 | < 10 | < 1 | 

Reference: US10519177B2, “Heterocyclic compounds and uses thereof” (Plexxikon Inc., priority 2013, dated 2019)
